Results taken from PubChem BioAssay (NCI).
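1) Cells in 96-well plates. 2) Compound, 48 h, 5 concentrations. 3) Linear interpolation between surrounding doses. 4) Unreached endpoint = highest concentration. Abbreviation: GI50, concentration required for 50% inhibition of growth. TGI marks complete inhibition of growth.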

Tests used:
Assay in all cases: DTP human tumour cell line panel, 48 h
HOP-62 NSCLC = tested on: HOP-62 NSCLC
MCF7 breast = tested on: MCF7 breast
SF-268 CNS = tested on: SF-268 CNS
A549 NSCLC = tested on: A549 NSCLC
OVCAR-5 ovarian = tested on: OVCAR-5 ovarian
SN12C renal = tested on: SN12C renal
SK-MEL-28 melanoma = tested on: SK-MEL-28 melanoma
HCC-2998 colon = tested on: HCC-2998 colon
SF-295 CNS = tested on: SF-295 CNS
SNB-19 CNS = tested on: SNB-19 CNS
786-0 renal = tested on: 786-0 renal
TK-10 renal = tested on: TK-10 renal
MDA-MB-435 = tested on: MDA-MB-435
SK-OV-3 ovarian = tested on: SK-OV-3 ovarian
SF-539 CNS = tested on: SF-539 CNS
PC-3 prostate = tested on: PC-3 prostate
CCRF-CEM leukemia = tested on: CCRF-CEM leukemia
NCI-H460 lung = tested on: NCI-H460 lung
U251 CNS = tested on: U251 CNS
T-47D breast = tested on: T-47D breast
RXF 393 renal = tested on: RXF 393 renal
SK-MEL-5 melanoma = tested on: SK-MEL-5 melanoma
NCI-H226 lung = tested on: NCI-H226 lung
DU-145 prostate = tested on: DU-145 prostate
HS 578T breast = tested on: HS 578T breast
UACC-257 melanoma = tested on: UACC-257 melanoma
UACC-62 melanoma = tested on: UACC-62 melanoma
BT-549 breast = tested on: BT-549 breast
ACHN renal = tested on: ACHN renal
CAKI-1 renal = tested on: CAKI-1 renal
UO-31 renal = tested on: UO-31 renal
KM12 colon = tested on: KM12 colon
MDA-MB-231 breast = tested on: MDA-MB-231 breast
SK-MEL-2 melanoma = tested on: SK-MEL-2 melanoma
SNB-75 CNS = tested on: SNB-75 CNS
EKVX NSCLC = tested on: EKVX NSCLC
OVCAR-4 ovarian = tested on: OVCAR-4 ovarian
OVCAR-3 ovarian = tested on: OVCAR-3 ovarian
SR leukemia = tested on: SR leukemia
HT29 colon = tested on: HT29 colon
NCI-H522 lung = tested on: NCI-H522 lung
M14 melanoma = tested on: M14 melanoma
RPMI-8226 leukemia = tested on: RPMI-8226 leukemia
OVCAR-8 ovarian = tested on: OVCAR-8 ovarian
SW-620 colon = tested on: SW-620 colon
K-562 leukemia = tested on: K-562 leukemia
IGROV1 ovarian = tested on: IGROV1 ovarian
COLO 205 colon = tested on: COLO 205 colon
A498 renal = tested on: A498 renal
HCT-15 colon = tested on: HCT-15 colon
NCI/ADR-RES ovarian = tested on: NCI/ADR-RES ovarian
MALME-3M melanoma = tested on: MALME-3M melanoma
MOLT-4 leukemia = tested on: MOLT-4 leukemia

## CC(=O)OC[C@H]1OC(O)C=C[C@@H]1OC(C)=O (stereo partly specified)
HOP-62 NSCLC
  GI50: 110 µM
  TGI: 227 µM
MCF7 breast
  GI50: 23.5 µM
  TGI: 123 µM
SF-268 CNS
  GI50: 109 µM
  TGI: 236 µM
A549 NSCLC
  GI50: 767 µM
  TGI: 2490 µM
OVCAR-5 ovarian
  GI50: 95 µM
  TGI: 169 µM
SN12C renal
  GI50: 88 µM
  TGI: 168 µM
SK-MEL-28 melanoma
  GI50: 80.4 µM
  TGI: 153 µM
HCC-2998 colon
  GI50: 91.7 µM
  TGI: 171 µM
SF-295 CNS
  GI50: 102 µM
  TGI: 198 µM
SNB-19 CNS
  GI50: 91.1 µM
  TGI: 170 µM
786-0 renal
  GI50: 94.1 µM
  TGI: 178 µM
TK-10 renal
  GI50: 98.1 µM
  TGI: 179 µM
MDA-MB-435
  GI50: 82.4 µM
  TGI: 155 µM
SK-OV-3 ovarian
  GI50: 145 µM
  TGI: 407 µM
SF-539 CNS
  GI50: 77.8 µM
  TGI: 155 µM
PC-3 prostate
  GI50: 89.5 µM
  TGI: 170 µM
CCRF-CEM leukemia
  GI50: 17.7 µM
  TGI: 89.8 µM
NCI-H460 lung
  GI50: 155 µM
  TGI: 488 µM
U251 CNS
  GI50: 95.1 µM
  TGI: 187 µM
T-47D breast
  GI50: 33.3 µM
  TGI: 161 µM
RXF 393 renal
  GI50: 96.8 µM
  TGI: 195 µM
SK-MEL-5 melanoma
  GI50: 89 µM
  TGI: 161 µM
NCI-H226 lung
  GI50: 119 µM
  TGI: 267 µM
DU-145 prostate
  GI50: 71.6 µM
  TGI: 143 µM
HS 578T breast
  GI50: 107 µM
  TGI: 263 µM
UACC-257 melanoma
  GI50: 87.1 µM
  TGI: 183 µM
UACC-62 melanoma
  GI50: 92 µM
  TGI: 176 µM
BT-549 breast
  GI50: 89.2 µM
  TGI: 162 µM
ACHN renal
  GI50: 81.5 µM
  TGI: 151 µM
CAKI-1 renal
  GI50: 91.1 µM
  TGI: 170 µM
UO-31 renal
  GI50: 89.5 µM
  TGI: 168 µM
KM12 colon
  GI50: 93.9 µM
  TGI: 177 µM
MDA-MB-231 breast
  GI50: 87.7 µM
  TGI: 183 µM
SK-MEL-2 melanoma
  GI50: 91.3 µM
  TGI: 177 µM
SNB-75 CNS
  GI50: 86.3 µM
  TGI: 159 µM

## CC(C)Sc1nc(Nc2ccc(S(N)(=O)=O)cc2)c(C#N)c(-c2ccc(F)cc2)n1
HOP-62 NSCLC
  GI50: 3.12 µM
  TGI: 10.7 µM
EKVX NSCLC
  GI50: 3.31 µM
  TGI: 14.1 µM
OVCAR-4 ovarian
  GI50: 2.1 µM
  TGI: 4.92 µM
MCF7 breast
  TGI: 32.1 µM
SF-268 CNS
  GI50: 5.49 µM
  TGI: 30.6 µM
A549 NSCLC
  TGI: 10.4 µM
OVCAR-3 ovarian
  GI50: 3.02 µM
  TGI: 8.51 µM
OVCAR-5 ovarian
  GI50: 14.6 µM
  TGI: 62.4 µM
SN12C renal
  GI50: 2.38 µM
  TGI: 5.99 µM
SK-MEL-28 melanoma
  GI50: 14.6 µM
  TGI: 37.7 µM
HCC-2998 colon
  GI50: 10.7 µM
  TGI: 27.6 µM
SF-295 CNS
  GI50: 1.95 µM
  TGI: 3.73 µM
SR leukemia
  GI50: 3.73 µM
SNB-19 CNS
  GI50: 2.85 µM
  TGI: 8.01 µM
786-0 renal
  GI50: 3.31 µM
  TGI: 11.1 µM
TK-10 renal
  GI50: 3.08 µM
HT29 colon
  GI50: 2.09 µM
  TGI: 4.77 µM
NCI-H522 lung
  GI50: 8 µM
M14 melanoma
  GI50: 5.59 µM
  TGI: 23.7 µM
MDA-MB-435
  GI50: 4.35 µM
  TGI: 31.9 µM
SK-OV-3 ovarian
  GI50: 3.04 µM
  TGI: 8.94 µM
SF-539 CNS
  TGI: 4.81 µM
RPMI-8226 leukemia
  GI50: 9.22 µM
  TGI: 64.3 µM
PC-3 prostate
  GI50: 4.84 µM
  TGI: 19 µM
OVCAR-8 ovarian
  GI50: 3.98 µM
  TGI: 15.7 µM
CCRF-CEM leukemia
  GI50: 7.35 µM
NCI-H460 lung
  TGI: 5.57 µM
U251 CNS
  GI50: 1.81 µM
  TGI: 3.54 µM
T-47D breast
  GI50: 3.46 µM
  TGI: 20.3 µM
SW-620 colon
  GI50: 3.84 µM
  TGI: 22.8 µM
K-562 leukemia
  GI50: 4.26 µM
RXF 393 renal
  TGI: 4.47 µM
IGROV1 ovarian
  TGI: 20.7 µM
SK-MEL-5 melanoma
  GI50: 23.3 µM
  TGI: 77.4 µM
NCI-H226 lung
  GI50: 2.14 µM
  TGI: 5.54 µM
COLO 205 colon
  GI50: 7.98 µM
  TGI: 30.2 µM
DU-145 prostate
  GI50: 5.68 µM
  TGI: > 100 µM
HS 578T breast
  GI50: 2.76 µM
  TGI: 9.31 µM
A498 renal
  GI50: 2.82 µM
UACC-257 melanoma
  GI50: 14.4 µM
  TGI: 47.8 µM
UACC-62 melanoma
  GI50: 10.3 µM
  TGI: 26.3 µM
BT-549 breast
  GI50: 9.29 µM
  TGI: 35.4 µM
ACHN renal
  GI50: 3.07 µM
  TGI: 9.12 µM
HCT-15 colon
  TGI: > 100 µM
CAKI-1 renal
  GI50: 1.78 µM
  TGI: 3.61 µM
UO-31 renal
  GI50: 2.39 µM
  TGI: 8.92 µM
KM12 colon
  GI50: 6.92 µM
  TGI: > 100 µM
MDA-MB-231 breast
  GI50: 2.86 µM
  TGI: 8.1 µM
NCI/ADR-RES ovarian
  GI50: 3.24 µM
MALME-3M melanoma
  GI50: 3.2 µM
  TGI: 10.3 µM
SK-MEL-2 melanoma
  GI50: 19 µM
  TGI: 55.7 µM
MOLT-4 leukemia
  GI50: 5.39 µM
SNB-75 CNS
  GI50: 2.49 µM
  TGI: 9.2 µM
